Source: ChEMBL document CHEMBL1152071, “Synthesis and neurobiological actions of pyrrolidine-2,3-dicarboxylic acids (PRDA). Conformationally restricted analogues of L-aspartate” (Bioorg Med Chem Lett, 1994)

Assays:
[1] = molecular target: Glutamate NMDA receptor (Rattus norvegicus) (UniProt P35439+Q00959+Q00960+Q00961+Q62645+Q8VHN2+Q9R1M7); assay: Depolarizing activity relative to that of L-Glutamate (L-Glu=1) tested against NMDA type receptor in the newborn rat spinal motoneurone; type: protein-complex assay
[2] = molecular target: Glutamate receptors; NMDA/AMPA (Rattus norvegicus) (UniProt P35439+Q00959+Q00960+Q00961+Q62645+Q8VHN2+Q9R1M7+P19491+P19492+P19493+P19490); assay: Depolarizing activity relative to that of L-Glutamate (L-Glu=1) tested against mixed type(NMDA & AMPA) receptor in the newborn rat spinal motoneurone; type: protein-complex assay

Row | SMILES | Relative Potency Ratio [1] | Relative Potency Ratio [2]
1 | O=C(O)[C@H]1NCC[C@H]1C(=O)O | 0.1 | –
2 | CN[C@H](CC(=O)O)C(=O)O | 50 | –
3 | O=C(O)[C@@H]1CCN[C@H]1C(=O)O | – | 5
4 | O=C(O)[C@H]1NCCC[C@H]1C(=O)O | 10 | –

Next, values leading:

Row | Relative Potency Ratio [1] | Relative Potency Ratio [2] | SMILES
5 | 3 | – | O=C(O)[C@H]1CCN[C@H]1C(=O)O
6 | 20 | – | O=C(O)[C@H]1CCCN[C@@H]1C(=O)O (racemic)
